Patent publication US20250228978A1, “ENGINEERING SUICIDE GENE APPROACHES TO IMPROVE CHEMOTHERAPEUTIC RESPONSE IN CANCER” (University of Virginia Patent Foundation, priority 0001, published 2025)

Columns and labels:
[1] = test system: U87 MG cells expressing AKT-gen2; experiment: Effect of chemotherapy on AKT-gen2 SGT (FLAG) expression; type: cell-based; conditions: 48 hr; for FLAG expression of AKT-gen2 SGT vs control: carboplatin 200 μM or TMZ 300 μM, immunoblot
Description: U87 MG cells expressing AKT-gen2 were treated with carboplatin (200 μM), TMZ (300 μM), or DMSO, and lysed after 48 hours. Densitometry was used to quantify the GAPDH-normalized FLAG signal.
Cells were also treated with carboplatin (125 μM) or DMSO for 48 hours and immunofluorescence microscopy was performed using antibodies against the proteins as shown in FIG. 29B. The expression of each variant was quantified as the mean FLAG expression on a per-cell basis.
(§1) To determine if a CK2-regulated SGT would cooperate with chemotherapies used to treat glioblastoma, we measured the response of AKT-gen2 transductants to a combination of GCV with temozolomide (TMZ) or carboplatin. We hypothesized that a synergistic effect could occurs because CK2 contributes to DNA damage response and responds to stress signals; it seemed sensible that this could drive higher CK2 activity26,27,29.
[…]. We further examined the extent of carboplatin-mediated effects on CK2 expression increase through immunofluorescence microscopy (FIG. 29B). AKT-gen2 transductants were plated in 96-well glass-bottomed plates for imaging and treated with a reduced carboplatin concentration (125 μM) to promote the retention of adherent cells.
Because we observed increased CK2α and CK2α′ in carboplatin-treated cells (FIGS. 27A, 36A, and 36B), we next examined if the carboplatin-dependent increase in AKT-gen2 expression relies on CK2 expression. In U87 MG AKT-gen2 transductants expressing CK2 (α/α′ catalytic subunits) or control shRNA, CK2α knockdown abrogated the carboplatin-mediated increase in SGT expression (FIG. 29C).

CK2α and CK2α′ = experiment: CK2 catalytic subunit expression after TMZ or carboplatin (immunofluorescence); type: cell-based; conditions: U87 MG cells, drug treated
Description: FIGS. 36A and 36B. Effect of TMZ or carboplatin on CK2 expression. U87 MG cells were subjected to immunofluorescence microscopy using antibodies against the two CK2 catalytic (FIG. 36A: CK2α, FIG. 36B: CK2α′) subunits. Image is representative of n=3 replicates and data are plotted as mean±sd. A Student's t test was applied to determine the significance of observed differences; *, **, and *** indicate p=0.05, 0.01, or 0.001, respectively.
as §1

[2] = test system: U87 MG AKTgen2 transductants; experiment: Cell death by flow cytometry (TO-PRO-3), carboplatin pre-treatment followed by GCV; conditions: carboplatin 200 μM two days and/or GCV 50 μM three days
Description: Flow cytometry for cell death quantification. For cell death experiments, cells were plated in 6-well plates, and cell treatments were performed as described in figure legends. At the conclusion of experiments, floating and adherent cells were collected, resuspended in PBS containing TO-PRO-3 (Life Technologies, 1:10,000), and stored on ice until analysis. Within an hour of collection, cells were analyzed for TO-PRO-3 permeability with a FACSCalibur cytometer (BD Biosciences). Data collected from flow cytometry experiments was analyzed in R using the FlowCore, ggCyto, and OpenCyto packages.
Cells expressing AKT-gen2 were also pre-treated with DMSO or carboplatin (200 μM) for two days, followed by treatment with DMSO or GCV (50 μM) administration for three days. Cell death was then measured by flow cytometry through TOPRO staining.

[3] = test system: G816 cells (glioma-initiating cell line); experiment: p38-regulated HSVtk constructs: FLAG abundance; type: cell-based, human; conditions: for FLAG expression of FLAG-NLS-HSVtk-MEF2A: two days, SB 203580 10 μM, trametinib 50 nM
Description: Referring to FIG. 18B, four designs tested included peptide sequences from the MAPK targets CHOP, MEF2A, p21, and FRA1. […] Sequences shown in blue were taken from proteins primarily phosphorylated by p38, while domains in gray were taken from the original FRA 1-PEST PEST design. The ERK recognition sequence was removed from these designs to improve specificity toward p38. G816 cells (glioma-initiating cell line) expressing each of the four HSVtk constructs were grown in 21% oxygen or 1% oxygen (hypoxia), with or without SB 203580 (p38 inhibitor, 10 μM for two days. Hypoxic induction of p38 phosphorylation promoted protein stabilization, which was abrogated with the addition of a p38 inhibitor to varying degrees for each construct.
Referring to FIG. 22A, G816-FLAG-NLS-HSVtk-MEF2A cells were treated with DMSO (vehicle), GCV (50 μM), or TMZ (500 μM) for up to 48 hours.
Referring to FIG. 22C, G816-FLAG-NLS-HSVtk-MEF2A cells were treated with DMSO (vehicle), SB 203580 (p38 inhibitor (p38i), 10 μM), or trametinib (MEK inhibitor (MEKi), 50 nM), in addition to TNFα, GCV, or TMZ for two days.

[4] = test system: cells expressing yCD-FIRE; experiment: yCD-FIRE expression and 5-FC cell killing; type: cell-based

N.N.O=C([O-])C1(C(=O)[O-])CCC1.[Pt+2] [Carboplatin, carboplatin]
carboplatin-mediated increase in SGT expression ([1]; CK2α knockdown, carboplatin 200 μM): abrogated
FLAG expression of AKT-gen2 SGT ([1]; carboplatin 125 μM, immunofluorescence): significant enhancement in FLAG expression
FLAG expression of AKT-gen2 SGT vs control [1]: significant increase in FLAG expression
carboplatin-mediated change in SGT accumulation ([1]; cells expressing CK2α′ shRNA, carboplatin 200 μM): small but insignificant increase
carboplatin-mediated change in AKT-gen2 expression ([1]; cells expressing control shRNA, carboplatin 200 μM): significant increase
CK2α and CK2α′ expression (CK2α and CK2α′): stronger increase
reduction in cell viability [2]: ~15%

Nc1nc(=O)c2ncn(COC(CO)CO)c2[nH]1 [GCV, ganciclovir]
FLAG abundance of FLAG-NLS-HSVtk-MEF2A relative to vehicle ([3]; GCV 50 μM or TMZ 500 μM, 48 hours): increased FLAG abundance
FLAG expression of FLAG-NLS-HSVtk-MEF2A [3]: increased

C[S+]([O-])c1ccc(-c2nc(-c3ccncc3)c(-c3ccc(F)cc3)[nH]2)cc1 (stereo not drawn) [SB 203580]
FLAG expression of FLAG-NLS-HSVtk-MEF2A [3]: attenuated in some cases

Cn1nnc2c(C(N)=O)ncn2c1=O [TMZ, temozolomide]
FLAG expression of AKT-gen2 SGT vs control [1]: no effect

Nc1nc(=O)[nH]cc1F [Variant 5-FC, 5-fluorocytosine]
cell viability in response to 5-FC plus growth factors ([4]; cells expressing yCD-FIRE): decreases
5-FC IC50 ([4]; cells treated with growth factors vs not treated): lower

CC(=O)Nc1cccc(-n2c(=O)n(C3CC3)c(=O)c3c(Nc4ccc(I)cc4F)n(C)c(=O)c(C)c32)c1 [trametinib, N-[3-[3-cyclopropyl-5-(2-fluoro-4-iodoanilino)-6,8-dimethyl-2,4,7-trioxopyrido[4,3-d]pyrimidin-1-yl]phenyl]acetamide]
FLAG expression of FLAG-NLS-HSVtk-MEF2A [3]: promoted PEST stabilization

TNFα
FLAG expression of FLAG-NLS-HSVtk-MEF2A [3]: increased
